Columns and labels:
[1] = system: Hep3B liver cancer cell line; assay: Cell survival, colorimetric MTT assay, Hep3B; format: cell-based; conditions: 100 μM, 72 hours
Experimental: (§1) 2) Against the liver cancer cell lines: The effect of the racemic mixture of 8-HHA and that of the individual enantiomers, namely S and R enantiomers, were examined on survival of PLC/PRF/5 (also referred to as “PLC-5” or “PLC5”), Hep3B and SNU449 (also referred to as “SNU”) liver cancer cell lines. The cell viability was examined in the exponential growth phase with 100 μM of 8-HHA for 72 hours using colorimetric MTT assay. In separate assays, PLC-5 cells were treated with different concentrations of S-enantiomer of 8-HHA ranging from 20-100 μM for 72 hours.

[2] = system: PLC5 cells a Hepatocellular Carcinoma cell line; assay: Liver xenograft mouse model (PLC5); format: in vivo, BALB/c nu/nu mice
Description: The purpose of this study was to determine anti tumor efficacy of 8-HHA in liver cancer using PLC5 cells a Hepatocellular Carcinoma cell line. The tumor growth and animal survival were considered as primary end point.
Animals and care: Thirty BABL/c nude, non-pregnant and nulliparous female mice that are 5-6 weeks old and weighing 16-20 gms were used in this study. BALB/c nu/nu mice were used because they have been historically used in xenograft studies to test anti-tumor efficacy of drug candidates. Mice were acclimatized for minimum 5 days, under same conditions as for the actual test. Mice were housed at room temperature 68±5° F. with room Relative Humidity of 30-70%, air Exchanges per Hour of a minimum of 10 changes per hour, lights exposure of 12-hour light/dark cycle, full spectrum fluorescent lights. The mice were housed in groups in ventilated micro-isolator cages made up of polycarbonate. The mice were using autoclaved laboratory grade bedding and were provided ad libitum with irradiated pellets and autoclaved water. There were no known contaminants present in the feed, water, or bedding expected to interfere with the test data. The laboratory and animal rooms were maintained as limited-access facilities.
Route of injection and dose: 8-HHA was administered through intraperitoneal (IP) injection. […] For this study, 2 doses-10 mg/kg and 100 mg/kg were used.
Tumor Induction: The cell line PLC5 were cultured according to recommended specifications at Vanas Oncology, in which cells were grown and maintained in RPMI medium containing 10% fetal bovine serum, 2 mM L-Glutamine, 100 units/ml of Streptomycin and 100 units/ml of Penicilin. Cells were trypizinized and counted using the Trypan-blue viability test using a hemocytometer. Cell counts in quadrants of the hemocytometer were converted to a cells/mL value, which will enable isolation of the appropriate number of cells per mouse. Each mouse was inoculated subcutaneously in the right flank region with 0.2 mL of a 50% RPMI/50% Matrigel™ mixture containing a suspension of tumor cells (5×10^6 cells/mouse). Tumors were observed twice weekly until well established. Tumor volume was calculated using the formula: Tumor weight (mg)=(a×b^2/2) where ‘b’ is the smallest diameter and ‘a’ is the largest diameter in millimeters.
Allocation of Animals: Once the established tumors reach a mean calculated volume of approximately 50-100 mg, the mice were randomized, using appropriate software, into treatment groups in order to reduce the variability of tumor sizes per group.
Pre Dose Procedure: Acclimated animals were weighed and observed for clinical signs of toxicity prior to dosing on Day 1.
The first day of dosing is Day 1. On Day 1,8-HHA, and vehicle injections were administered according to the study design in Table 7 below.
Post Dose Procedure: Following treatment, tumor and mouse body weight measurements were recorded twice weekly and gross observation was made at least once daily. Mice with tumors that are not palpable was considered complete regressions. Percentage of mice mortality and time of death will be recorded for every group in the study. Animals may be defined as moribund and sacrificed if one or more of the following criteria are met: • Loss of body weight of 20% or greater in a 1 week period. • Mice that inhibit normal physiological function such as eating, drinking, mobility, and ability to urinate and/or defecate. • Tumors that exceed a maximum size of 2000 mg as measured by calipers. • Ulcerated tumors, or tumors that bleed or produce exudates. • Prolonged, excessive diarrhea leading to excessive weight loss (>20%). • Persistent wheezing and respiratory distress. • Prolonged or excessive pain or distress as defined by clinical observations such as: prostration, hunched posture, paralysis/paresis, distended abdomen, ulcerations, abscesses, seizures, and/or hemorrhages.

[3] = system: SNU449 liver cancer cell line; assay: Cell survival, colorimetric MTT assay, SNU449; format: cell-based; conditions: 100 μM, 72 hours
Experimental: as §1

[4] = system: non-small cell lung cancer cell lines (HOP-92, NCI-H460); assay: NCI 60 human tumor cell line screen (MTT), non-small cell lung cancer lines; conditions: 10 μM
Experimental: The screening is a microplate cytotoxicity assays based on a simple colorimetric (MTT) assay which relies on the metabolic reduction of a tetrazolium dye in viable cells to a colored formazan product. A modified protocol was used for the screening of the compound and measures the inhibition of growth of various tumor cell lines. The 8-HHA tested in this assay was at the concentration of 10 μM.

In the case of CCCCCCCCC(O)CCCCCCC(=O)O (racemic) [Sample 8-HHA, 8-hydroxy-palmitic acid], the “reduced the survival of Hep3B cell line by” value [1] is reported as 25%, the “tumor volume decrease compared to the control group” value (shortened to “tumor volume decrease”) ([2]; T1 10 mg/Kg, day 4) is reported as 44.5% and the “tumor volume decrease” value ([2]; T1 10 mg/Kg, day 9) is reported as 49.8%. The “tumor volume decrease” value ([2]; T1 10 mg/Kg, day 11) was 72.3%, the “tumor volume decrease” value ([2]; T1 10 mg/Kg, day 16) was 77.7% and the “tumor volume decrease” value ([2]; T1 10 mg/Kg, day 18) was 78.4%. For the same molecule, the “tumor volume decrease” value ([2]; T2 100 mg/Kg, day 4) was 56.3%, the “tumor volume decrease” value ([2]; T2 100 mg/Kg, day 9) was 61.1% and the “tumor volume decrease” value ([2]; T2 100 mg/Kg, day 11) was 81.1%. For the same molecule, the “tumor volume decrease” value ([2]; T2 100 mg/Kg, day 16) was 87.9%, the “tumor volume decrease” value ([2]; T2 100 mg/Kg, day 18) was 88.3% and the “tumor growth inhibition, in words” value ([2]; both T1 (10 mg/Kg) and T2 (100 mg/Kg)) was “significantly inhibited tumor growth in mice from day 4”. For the same molecule, the “effect on survival of SNU cell line” value [3] was “no major effect” and the “inhibition of growth on non-small cell lung cancer cell lines, in words” value [4] was “remarkable inhibition of growth”.

— patent US10478464B2, “Compositions and methods of use” (priority 2009, dated 2019)
